From the SangsterLogP compilation

Assay: method code SF, from Hansch, C. & Leo, A. (1987). Log P database [Dataset]. Pomona College Medicinal Chemistry Project.

| Structure (SMILES) | logP | further results |
| --- | --- | --- |
| O=c1[nH]cc(Br)c(=O)[nH]1 | -0.21 | – |
| O=S1(=O)NC=Nc2cc(Cl)ccc21 | 1.01 | – |
| CCCCCCC1OC(=O)c2cc(N)ccc21 (stereo unspecified) | 3.65 | – |
| O=[N+]([O-])c1ccc(O[C@@H]2O[C@H](CO)[C@@H](O[C@H]3O[C@H](CO)[C@@H](O)[C@H](O)[C@H]3O)[C@H](O)[C@H]2O)cc1 | -1.39 | – |
| O=[N+]([O-])c1ccc2[nH]c(CCCCc3nc4cc([N+](=O)[O-])ccc4[nH]3)nc2c1 | 2.45 | – |
| Clc1ccc2[nH]c(CCCCCc3nc4cc(Cl)ccc4[nH]3)nc2c1 | 1.98 | – |
| COc1nnccc1N(C)C | 0.9 | – |
| Brc1cccc(Br)c1 | 3.75 | – |
| CC(O)CCC(=O)c1ccoc1 (stereo unspecified) | 0.84 | – |
| O=c1cc(-c2ccccc2)oc2cc(O)ccc12 | 3.62 | – |
| CO/N=C/CCc1ccccc1 | – | logD (pH 7.4): 2.14 |
| CC(=O)Nc1ccccc1[N+](=O)[O-] | 1.05 | – |
| CCOC(=O)CC(=O)C=Cc1ccccc1C | 2.66 | – |
| COC1OCC(O)C(NC(=O)N(C)N=O)C1O (stereo unspecified) | – | logD (pH 7.4): -1.08 |
| CN(C)/N=N/c1ccccc1I | – | logD (pH 2.0): 3.5 |
| COC(=O)c1cccc(O)c1 | 1.89 | – |
| CN(C)/N=N/c1ccccc1C(=O)NCC#N | 1.79 | – |
| CN(C(=O)CCSC#N)c1ccc(S(=O)(=O)N(C)C)cc1 | 0.84 | – |
| OC(O)C(Cl)(Cl)Cl | 0.99 | – |
| COc1cc(/C=N/O)ccc1OCCOC(=O)c1ccc(Cl)cc1 | 3.92 | – |
| CCC(C)c1cnc(CC(C)C)c(=O)n1O (stereo unspecified) | 1.81 | – |
| CC(C)(C)c1ccccc1OCC(=O)O | 3.33 | – |
| CC(C)=NO | 0.12 | – |
| O=[N+]([O-])c1ccc(C=Cc2nccn2Cc2ccccc2)o1 | 1.55 | – |
| CC(=O)Nc1ccc(N(C)C)cc1 | 1 | – |
| CCCCCC1(CC)C(=O)NC(=O)NC1=O | 2.24 | – |

| Structure (SMILES) | logP | further results |
| --- | --- | --- |
| c1ccc(-n2cnnn2)cc1 | 1.09 | – |
| COP(=O)(CC(C)=O)OC | 0.86 | – |
| O=S(=O)(N=[N+]([O-])c1ccccc1)c1ccccc1 | 2.33 | – |
| O=C(O)c1ccccc1-c1ccccc1C(=O)O | – | logD (pH 1.0): 2.07 |
| CCOC(=O)/C(=C/c1c(Cl)cccc1Cl)C(C)=O | 2.86 | – |
| CC(=O)N(C)/N=N/c1ccc(C)cc1 | 3.23 | – |
| Oc1ccccc1C(F)(F)F | 2.73 | – |
| Cn1ccc(=O)c2ccccc21 | 0.44 | – |
| O=c1nc[nH]c(=O)[nH]1 | -1.87 | – |
| CN(CCO)N=Nc1ccccc1 | – | logD (pH 12.0): 1.71 |
| CCOC(=O)c1ccc(NC(=O)C(F)(F)F)cc1 | 2.25 | – |
| COc1ccc2c(=O)c(C)c(C(C)C)oc2c1 | 3.39 | – |
| O=[N+]([O-])c1cc[n+]([O-])cc1 | -0.55 | – |
| O=C(O)c1cc(=O)c2ccccc2o1 | – | logD (pH 0.7): 1.63 |
| CCOC(=O)/C(=C/c1cccc(F)c1)C(C)=O | 2.46 | – |
| C=CCN(CC=C)CC=C | – | logD (pH 13.0): 2.59 |
| CCOC(=O)CON=Cc1ccc(OCCOC(=O)CC)c(OC)c1 | 2.39 | – |
| Nc1ccc2nc3ccccc3cc2c1 | 2.62 | – |
| NC(=O)c1cccs1 | 0.52 | – |
| Nc1cccc2c1C(=O)c1ccccc1C2=O | 2.87 | – |
| Cc1ccc(CO)cc1 | 1.59 | – |
| COc1ccc(C(C)=O)c(O)c1 | 1.98 | – |
| Cn1c(N)cc2ccccc21 | – | logD (pH 8.0): 1.72 |
| NC(=O)CI | -0.19 | – |
| O=C(O)c1ccc[nH]1 | – | logD (pH 2.0): 0.85 |
| CN(C(=O)CCCl)c1ccc(S(=O)(=O)N(C)C)cc1 | 0.98 | – |

| Structure (SMILES) | logP | further results |
| --- | --- | --- |
| OC1OC[C@H](O)[C@H](O)[C@H]1O (stereo partly specified) | -3.02 | – |
| O=CN(Cc1ccccc1)c1ccccc1 | 2.62 | – |
| c1cncc(CCN2CCCCC2)c1 | – | logD (pH 11.0): 1.66 |
| CCCCOC(=O)c1cccc(C(=O)OCCCC)c1 | 4.26 | – |
| NC(=O)c1ncn2c(=O)n(CCCl)nnc12 | -0.47 | – |
| CC[C@H]1OC(=O)[C@H](C)[C@@H](O[C@H]2C[C@@](C)(OC)[C@@H](O)[C@H](C)O2)[C@H](C)[C@@H](O[C@@H]2O[C@H](C)C[C@H](NC)[C@H]2O)[C@](C)(O)C[C@@H](C)C(=O)[C@H](C)[C@@H](O)[C@]1(C)O | 2.21 | – |
| CN(C)CC(CN1c2ccccc2Sc2ccccc21)N(C)C (stereo unspecified) | 4.76 | – |
| NC(=O)COc1ccccc1 | 0.76 | – |
| CN(C)C(=O)Nc1ccc(Br)cc1 | 2.19 | – |
| CCOC(=O)c1cccc([N+](=O)[O-])c1 | – | logD (pH 7.0): 2.35 |
| CN(C)c1ccc([N+]([O-])=NC#N)cc1 | 2.3 | – |
| COc1ccc(-n2c(C)c(N(C)C)c(=O)n(C)c2=O)cc1 | – | logD (pH 7.4): 1.96 |
| CCOP(=S)(OCC)N1C(=O)c2ccccc2C1=O | 3.48 | – |
| CC1(C)OC(=O)c2ccccc21 | 1.73 | – |
| CC(=O)N(c1ccccc1)S(C)(=O)=O | 0.29 | – |
| NS(=O)(=O)c1ccc(C(=O)c2ccncc2)cc1 | 0.56 | – |
| O=[N+]([O-])c1ccc2[nH]c(CCCCCc3nc4cc([N+](=O)[O-])ccc4[nH]3)nc2c1 | 1.97 | – |
| CCOP(=O)(OCC)SCn1nnc2ccccc2c1=O | 1.63 | – |
| CC(N)=S | -0.26 | – |
| CC(=O)n1ccnc1 | -0.34 | – |
| CO[C@H]1C=CO[C@@]2(C)Oc3c(C)c(O)c4c(O)c(c(C=NN5CCNCC5)c(O)c4c3C2=O)NC(=O)C(C)=CC=C[C@H](C)[C@H](O)[C@@H](C)[C@@H](O)[C@@H](C)[C@H](OC(C)=O)[C@@H]1C | 1.12 | – |
| CNP(=O)(OC)Oc1ccccc1Cl (stereo unspecified) | 1.61 | – |
| CCCCO[N+](=O)[O-] | 2.15 | – |
| O=C1C=CCCC1 | 0.61 | – |
| CCCCCCCCOC(=O)c1ccccc1C(=O)OCCCCCCCC | 5.22 | – |
| CN(C)CC(O)c1ccccc1 (stereo unspecified) | – | logD (pH 13.0): 1.54 |

| Structure (SMILES) | logP | further results |
| --- | --- | --- |
| O=C(NC1CC1)c1cc(N2CC2)c([N+](=O)[O-])cc1[N+](=O)[O-] | 0.74 | – |
| COc1cccc2cccnc12 | 1.84 | – |
| O=C1C=CC(=NCl)C=C1 | 1.26 | – |
| CCOP(=O)(OCC)Oc1ccc(SC)cc1C | 3.21 | – |
| CCOC(=O)c1csc(C=Cc2ccc([N+](=O)[O-])o2)n1 | 1.3 | – |
| CN(C)CCc1cccnc1 | – | logD (pH 11.0): 0.82 |
| CC1=Nc2ccc(C(F)(F)F)cc2S(=O)(=O)N1 | 1.51 | – |
| S=C(Nc1ccccc1)c1ccccc1 | 3.03 | – |
| C=C(F)F | 1.24 | – |
| CC1=Nc2ccc(I)cc2S(=O)(=O)N1 | 1.61 | – |
| NC(=O)c1cccc(F)c1 | 0.91 | – |
| O=S1(=O)NC(C2CC2)=Nc2cc(Cl)ccc21 | 1.98 | – |
| NS(=O)(=O)c1cccc(OC(=O)CNC(=O)c2ccccc2)c1 | 0.84 | – |
| CCC(=O)CCCN(C)c1ccc(S(=O)(=O)N(C)C)cc1 | 0.71 | – |
| O=S1(=O)NC(C(Cl)Cl)=Nc2cc(Cl)ccc21 | 1.81 | – |
| O=C1C(NCC(O)CO)=C(N2CC2)C(=O)C(NCC(O)CO)=C1N1CC1 (stereo unspecified) | -1.97 | – |
| CC(C)N(Cc1cccnc1)C(C)C | – | logD (pH 11.0): 2.27 |
| CCOC(=O)C(=Cc1ccc(Cl)cc1Cl)C(C)=O | 3.67 | – |
| CC(=O)Nc1ccc(CN(C)/N=N/c2ccc(C(=O)O)cc2)cc1 | 3.35 | – |
| CCCCC(=O)Nc1ccc(Cl)c(Cl)c1 | 4.17 | – |
| CC(=O)c1ccc(C(C)=O)cc1 | – | logD (pH 7.0): 1.34 |
| c1ccc(N2CCCCC2)cc1 | – | logD (pH 13.0): 2.98 |
| CC1CO1 (stereo unspecified) | 0.03 | – |
| CC(=O)Oc1cccc(C(F)(F)F)c1 | 2.63 | – |
| Nc1ccc2ccccc2c1S(=O)(=O)O | -1.16 | – |
| O=C1OC2(CCCC2)c2ccccc21 | 2.56 | – |

| Structure (SMILES) | logP | further results |
| --- | --- | --- |
| CN(C)/N=C/CCc1ccccc1 | – | logD (pH 7.4): 2.05 |
| CCOP(=S)(OCC)SCn1nnc2ccccc2c1=O | 3.4 | – |
| CCCCOc1cccc(C=C(C(C)=O)C(=O)OCC)c1 | 3.12 | – |
| C=C(C)C1Cc2c(ccc3c2OC2COc4cc(OC)c(OC)cc4C2C3=O)O1 (stereo unspecified) | 4.1 | – |
| CCSCC1=Nc2cc(Cl)ccc2S(=O)(=O)N1 | 2.26 | – |
| C(=C\c1ccccn1)/c1ccccn1 | 2.11 | – |
| CCCCCc1ccc(O)cc1 | 4.06 | – |
| Cc1ccc2[nH]c(=O)[nH]c(=O)c2c1 | 0.55 | – |
| CCOC(=O)C(=Cc1cccc(OC)c1OC)C(C)=O | 2.21 | – |
| CCOc1ccc(C(N)=O)cc1 | 1.3 | – |
| CC(=O)Oc1ccccc1I | 2.55 | – |
| CN(C)c1cnccn1 | 0.96 | – |
| CNC(C)=O | -1.05 | – |
| CC(C)(C)N | 0.4 | – |
| CCCCOC(=O)c1cccnc1 | – | logD (pH 7.0): 2.27 |
| FC(F)(F)Sc1ccccc1 | 3.57 | – |
| CS(=O)c1ccccc1 (stereo unspecified) | 0.55 | – |
| O=C(CNC(=O)c1ccccc1)Oc1ccc(F)cc1 | 2.46 | – |
| Cn1nnnc1SCC1=C(C(=O)O)N2C(=O)C(NC(=O)Cc3cccs3)C2SC1 (stereo unspecified) | – | logD (pH 3.0): 0 |
| CCOc1cc(Cc2cnc(N)nc2N)cc(OCC)c1 | – | logD (pH 13.0): 2.52 |
| Cc1nnc(SCc2ccccc2)o1 | 1.74 | – |
| C[C@]12CCC(=O)C=C1CC[C@@H]1[C@@H]2CC[C@]2(C)C(=O)CC[C@@H]12 | 2.75 | – |
| NC(=S)NN=Cc1ccccc1 | 1.86 | – |
| CCOP(=S)(OCC)SCSCC | 3.24 | – |
| O=C(Nc1ccc(Cl)c(Cl)c1)c1ccccc1 | 4.42 | – |
| O=S1(=O)NC(c2cccs2)=Nc2ccccc21 | 1.68 | – |

| Structure (SMILES) | logP | further results |
| --- | --- | --- |
| CC1(C)N=C(N)N=C(N)N1c1ccc(Br)cc1 | – | logD (pH 13.0): 1.09 |
| O=[N+]([O-])C=Cc1ccsc1 | 1.94 | – |
| CCOC(=O)C(=Cc1cccc(OC)c1)C(=O)OCC | 3.18 | – |
| N#Cc1cccc(N)c1 | 1.07 | – |
| O=C(c1ccncc1)c1ccc(O)cc1 | 1.37 | – |
| CN(C)C(=O)N(c1ccccc1)c1ccccc1 | 2.8 | – |
| C1=CCCCC1 | 2.86 | – |
| Cn1ncc2ccccc2c1=O | 0.61 | – |
| O=C(C(=O)c1ccco1)c1ccco1 | 1.24 | – |
| N#CN=[N+]([O-])c1cccc(Cl)c1 | 2.4 | – |
| O=NN1CCOCC1 | -0.3 | – |
| O=C1CC(C(=O)O)Oc2ccccc21 (stereo unspecified) | – | logD (pH 0.7): 1.26 |
| COC(=O)c1ccsc1 | 1.76 | – |
| CC(=O)Nc1ccc2oc(C)c(C)c(=O)c2c1 | 1.79 | – |
| CC(=O)c1ccc([C@@H](O)[C@@H](CO)NC(=O)C(Cl)Cl)cc1 | 0.57 | – |
| O=[N+]([O-])c1ccc(C=Cc2nccn2Cc2ccncc2)o1 | 1.67 | – |
| CCN(CC)C(=O)[C@@H]1C=C2c3cccc4[nH]cc(c34)C[C@H]2N(C)C1 | 2.95 | – |
| CCCCC1OC(=O)c2ccccc21 (stereo unspecified) | 2.8 | – |
| ClC(Cl)=Nc1ccccc1 | 2.54 | – |
| CCCS | 1.81 | – |
| CCOc1ccccc1OC | 1.73 | – |
